How the values were obtained:
[1] = target: T1, BCoV 9-SOAE (haemagglutinin-esterase on whole virus) (Bovine coronavirus Mebus, UniProt P15776); experiment: pNPA hydrolysis, A400; type: biochemical
[2] = target: T1, BCoV 9-SOAE (haemagglutinin-esterase on whole virus); experiment: pNPA hydrolysis, A400; type: biochemical; conditions: read-out: BCoV / 3

T1 sequence (P15776 17-424): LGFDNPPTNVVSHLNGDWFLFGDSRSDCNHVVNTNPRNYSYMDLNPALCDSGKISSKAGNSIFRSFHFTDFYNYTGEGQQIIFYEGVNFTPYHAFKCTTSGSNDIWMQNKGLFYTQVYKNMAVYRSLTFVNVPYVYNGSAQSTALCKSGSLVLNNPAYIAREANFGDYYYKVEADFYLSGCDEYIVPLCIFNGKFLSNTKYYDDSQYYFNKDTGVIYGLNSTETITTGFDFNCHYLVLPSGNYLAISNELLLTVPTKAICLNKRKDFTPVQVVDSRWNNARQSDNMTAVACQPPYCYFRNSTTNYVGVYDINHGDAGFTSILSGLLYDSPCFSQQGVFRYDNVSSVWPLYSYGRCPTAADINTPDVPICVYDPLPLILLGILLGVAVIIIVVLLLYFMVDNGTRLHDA

Row | Structure (SMILES) | pNPA hydrolysis, A400 [1] | inhibition at 2000 µM [2] [%]
1 | CC(=O)Oc1ccc([N+](=O)[O-])cc1 [p-nitrophenyl acetate] | esterase activities of all viruses and recombinant proteins were determined with p-nitrophenyl acetate (pNPA) | 
2 | C=CCO[C@]1(C(=O)O)C[C@H](O)[C@@H](NC(C)=O)[C@H]([C@H](O)[C@H](O)COC)O1 [compound 3, Ammonium (allyl 5-acetamido-9-O-methyl-3,5-dideoxy-d-glycero-α-d-galacto-2-nonulopyranosidonate)] |  | < 0

— publication PMC7111470 (European Journal of Medicinal Chemistry, 2011)
